Literature values in patent US20120276003A1, “COMPOUND CONTAINING AN OXYGEN-15, PREPARATION AND USE THEREOF, AND COMPOSITION COMPRISING THEREOF” (Beijing Top Grade Medical Equipment Co., Ltd., priority 2011, published 2012).

Details: perfusion imaging agent; stated 'academically'

[15OH2] [^15O-water]
one-time through uptake rate: ~100%
